Molecular target: Ubiquitin carboxyl-terminal hydrolase 7 (Homo sapiens, UniProt Q93009)
Test: Biochemical Assay: Dilution plates were prepared at 21 times the final concentration (2100 μM for a final concentration of 100 μM) in 50% DMSO in a 96-well polypropylene V-bottom plate (Greiner #651201). A typical 8-point dilution series would be 100, 30, 10, 3, 1, 0.3, 0.1, 0.03 μM final. Reactions were performed in duplicate in black 384 well plates (small volume, Greiner 784076) in a final reaction volume of 21 μl. Either 1 μl of 50% DMSO or diluted compound was added to the plate. USP7 was diluted in reaction buffer (20 mM Tris, pH 7.5, 100 mM NaCl, 0.05% Tween 20, 0.5 mg/ml BSA, 5 mM—beta mercaptoethanol) to the equivalent of 0.0025 μl/well and 10 μl of diluted USP7 was added to the compound. Enzyme and compound were incubated for 30 min at room temp. Reactions were initiated by the addition of 50 nM of TAMRA labelled peptide linked to ubiquitin via an iso-peptide bond as fluorescence polarisation substrate. Reactions were read immediately after addition of substrate and following a 2 hr incubation at room temperature. Readings were performed on a Pherastar Plus (BMG Labtech). λ Excitation 540 nm; λ Emission 590 nm.

Chain of Ubiquitin carboxyl-terminal hydrolase 7 (Q93009 whole entry): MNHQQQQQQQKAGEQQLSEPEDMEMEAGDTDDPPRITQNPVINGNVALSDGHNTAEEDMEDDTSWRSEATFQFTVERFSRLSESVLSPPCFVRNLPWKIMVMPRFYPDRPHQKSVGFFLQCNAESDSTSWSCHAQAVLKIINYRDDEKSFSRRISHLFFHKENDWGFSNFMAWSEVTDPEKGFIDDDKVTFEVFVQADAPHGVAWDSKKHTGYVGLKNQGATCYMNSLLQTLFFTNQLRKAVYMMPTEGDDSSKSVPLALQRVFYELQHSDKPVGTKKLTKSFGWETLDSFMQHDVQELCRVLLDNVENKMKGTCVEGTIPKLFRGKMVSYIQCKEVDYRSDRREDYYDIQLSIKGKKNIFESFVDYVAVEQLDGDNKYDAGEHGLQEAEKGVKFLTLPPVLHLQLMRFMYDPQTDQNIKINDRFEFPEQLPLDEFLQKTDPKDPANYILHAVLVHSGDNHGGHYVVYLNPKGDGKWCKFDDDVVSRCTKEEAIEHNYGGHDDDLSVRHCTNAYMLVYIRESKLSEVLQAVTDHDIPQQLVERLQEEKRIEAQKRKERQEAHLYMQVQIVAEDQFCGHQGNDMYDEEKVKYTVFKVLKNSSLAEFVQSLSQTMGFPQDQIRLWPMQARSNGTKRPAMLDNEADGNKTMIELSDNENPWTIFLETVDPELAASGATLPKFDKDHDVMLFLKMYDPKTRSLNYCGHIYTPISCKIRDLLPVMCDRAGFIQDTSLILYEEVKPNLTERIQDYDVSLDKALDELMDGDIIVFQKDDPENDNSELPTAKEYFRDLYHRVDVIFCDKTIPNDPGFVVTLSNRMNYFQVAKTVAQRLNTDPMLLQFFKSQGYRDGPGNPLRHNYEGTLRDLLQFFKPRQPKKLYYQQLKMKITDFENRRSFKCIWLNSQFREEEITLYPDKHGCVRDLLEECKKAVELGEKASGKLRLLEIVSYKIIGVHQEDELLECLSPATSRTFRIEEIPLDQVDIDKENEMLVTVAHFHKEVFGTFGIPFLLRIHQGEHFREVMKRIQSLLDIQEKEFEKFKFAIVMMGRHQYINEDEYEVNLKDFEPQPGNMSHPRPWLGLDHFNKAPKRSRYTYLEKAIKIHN

Structure (SMILES)	IC50 [µM]
N#CN1Cc2[nH]nc(-c3cccc(N4CCCC4=O)c3)c2C1	< 10
N#CN1Cc2[nH]nc(-c3cccc(N4CCOC4=O)c3)c2C1	< 10
